# Test results reported in patent EP0063525A1, “Dibenzazepine tetracyclic derivatives, process for their preparation and pharmaceutical compositions containing them” (CENTRE NATIONAL DE LA RECHERCHE SCIENTIFIQUE (CNRS), priority 1981, dated 1982).
# Like-named read-outs stand apart in the source and are kept apart here.
# What was measured:
# rat = test: medium-term toxicity in the rat, per os, 5 weeks; conditions: per os, 2, 10 et 50 mg/kg pendant 5 semaines
# Description: Cette étude a eu pour but de rechercher les effets éventuels du composé 2 sur les différents paramètres biologiques hématologi -ques et histologiques du rat après traitement per os à raison de 2,10 et 50 mg/kg pendant 5 semaines.
# Souris [1] = test: tetrabenazine hypothermia; format: in vivo; conditions: product i.p. 5 mg/kg 30 min before tétrabénazine 32 mg/kg i.v.
# [2] = acute toxicity in the mouse, intraperitoneal; format: in vivo, Souris; conditions: mouse, in vivo, ip, voie intrapéritonéale; for mortality at 48 h: read-out: Mortalité %
# Description: (§1) Les produits ont été administrés par voie intrapéritonéale à des souris femelles dont le poids variait de 18 à 30 g.
# (§2) Les animaux injectés ont été maintenus dans une salle thermostatée, nourris et abreuvés à volonté.
# (§3) La mortalité a été relevée à 1 heure, 4 heures, 24 heures et 48 heures.
# souris femelles = test: acute toxicity in the mouse, intraperitoneal; format: in vivo; conditions: voie intrapéritonéale, dead mice of the group
# Description: as §1, §2, §3
# chiens anesthésiés = test: cardiovascular toxicity in the anaesthetised dog, slow perfusion; format: in vivo, Chien; conditions: in vivo, 20 mg/kg
# Description: L'étude du composé 2 a été effectuée sur 7 chiens anesthésiés à des doses allant de 4 à 20 mg/kg en perfusion lente.
# Iléon de cobaye [3] = test: spasmolytic action, antihistaminic effect; format: cell-based; conditions: histamine 0,5 à 3 x 10^-5 mg/ml, cinq préparations; read-out: DE 50 envers le spasme provoqué par l'histamine
# Description: (§4) Les essais ont été effectués sur l'Iléon de cobaye maintenu en survie dans une solution de Tyrode oxygénée et thermostabilisée à 37° C suivant le méthode de MAGNUS.
# (§5) L'action spasmolytique du composé 2 a été étudiée en opposition avec les propriétés spasmogènes de l'acétylcholine, du chlorure de baryum, de l'histamine et de la sérotonine.
# Ces essais ont été pratiqués sur cinq préparations. L'histamine a été utilisée à la concentration de 0,5 à 3 x 10^-5 mg/ml.
# Iléon de cobaye [4] = test: spasmolytic action, anti barium chloride effect; format: cell-based; conditions: BaCl2 6 x 10^-2 mg/ml
# Description: as §4, §5
# Ces essais ont été effectués sur douze préparations. Six ont été utilisées pour la recherche d'inhibition de la contraction ba- rytique dite curative, les six autres pour les essais dits "préventif baryum".
# La concentration de BaCl2 utilisée comme agent contracturant est de 6 x 10^-2 mg/ml.
# Souris [5] = test: antireserpine activity: reserpine hypothermia; format: in vivo; conditions: réserpine 5 mg/kg i.p. 17 h before, product i.p. 5 mg/kg
# Method in brief: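 Mice in groups of 4 given reserpine 5 mg/kg i.p.; 17 hours later rectal temperature taken by thermocouple and test substance or solvent given i.p. Temperature measured hourly for 4 hours. Reported as mean temperature changes at 1, 2, 3 and 4 hours, their 4-hour sum, and percent rise versus solvent controls.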
# Souris [6] = test: tetrabenazine ptosis; format: in vivo; conditions: product i.p. 5 mg/kg 30 min before tétrabénazine 32 mg/kg i.v.
# Souris [7] = test: analgesic activity, phenylbenzoquinone writhing technique; format: in vivo
# Description: Ce test consiste à rechercher une éventuelle protection vis-à-vis des crampes ou contorsions abdominales provoquées chez la Souris par injection intrapéritonéale de phénylbenzoquinone.
# Les souris sont réparties au hasard par lots de 4 dans des cristallisoirs.
# Le compose 2 a été injecté par voie intrapéritonéale, 30 minutes avant l'injection de la phénylbenzoquinone.
# Les crampes abdominales sont comptées pour chaque souris pendant 30 minutes à partir de la quinzième minute qui suit l'injection de l'agent algogène.
# Iléon de cobaye [8] = test: spasmolytic action, anticholinergic effect (acetylcholine contraction); format: cell-based; conditions: acétylcholine 3 à 6 x 10^-5 mg/ml, six préparations; read-out: DE 50 (effet anticholinergique)
# Description: as §4, §5
# Ces essais ont été effectués sur six préparations. L'effet inhibiteur du composé 2 a été recherché à l'encontre des propriétés contracturantes de l'acétylcholine utilisée à la concentration de 3 à 6 x 10^-5 mg/ml pour une cuve de 30 ml.
# [9] = 20 mg/kg/IP 30 min before phényl-benzoquinone 10 mg/kg/IP
# [10] = 50 mg/kg/IP 30 min before phényl-benzoquinone 10 mg/kg/IP
smiles,measurement,setting,value
"CN(C)CCN1c2ccccc2C2ON=C(c3ccccc3)C2c2ccccc21 (stereo not drawn) [Composé 2, (β-diméthylaminoéthyl)-8 phényl-3 trihydro-3a,8, 12b (dibenzo [b,f]isoxazolo [4,5-d])azépine]",paramètres biologiques hématologiques et histologiques du rat,rat,aucune modification
same,inhibition in vivo at 5 mg/kg,"Souris [1]; ip, 2 h, hypothermie, read-out: % de protection",3%
same,Température après tétrabénazine 30 minutes,Souris [1],"-3,2"
same,Température après tétrabénazine 60 minutes,Souris [1],"-2,6"
same,Température après tétrabénazine 90 minutes,Souris [1],"-1,3"
same,Température après tétrabénazine 120 minutes,Souris [1],"-1,3"
same,Température après tétrabénazine Total,Souris [1],"-8,3"
same,LD50 at 48 h,"[2]; souris femelles, read-out: DL 50",95 mg/kg
same,mortality at 48 h,[2]; 10 mg/kg,0%
same,mortality at 48 h,[2]; 50 mg/kg,0%
same,mortality at 48 h,[2]; 75 mg/kg,0%
same,mortality at 48 h,[2]; 100 mg/kg,60%
same,mortality at 48 h,[2]; 200 mg/kg,100%
same,Mortalité en 1 heure,souris femelles; 10 mg/kg,0
same,Mortalité en 48 h.,souris femelles; 10 mg/kg,0
same,Mortalité en 1 heure,souris femelles; 50 mg/kg,0
same,Mortalité en 48 h.,souris femelles; 50 mg/kg,0
same,Mortalité en 1 heure,souris femelles; 75 mg/kg,0
same,Mortalité en 48 h.,souris femelles; 75 mg/kg,0
same,Mortalité en 1 heure,souris femelles; 100 mg/kg,3
same,Mortalité en 48 h.,souris femelles; 100 mg/kg,3
same,Mortalité en 1 heure,souris femelles; 200 mg/kg,4
same,Mortalité en 48 h.,souris femelles; 200 mg/kg,5
same,toxicité sur le système cardiovasculaire comparativement à l'imipramine,chiens anesthésiés,plus faible toxicité
same,EC50,Iléon de cobaye [3],~0.05 µg/mL
same,IC50,"Iléon de cobaye [4]; curative, read-out: concentration for inhibition de 50% de l'effet spasmogène, essais curatifs",1 µg/mL
same,IC50,"Iléon de cobaye [4]; Cavia porcellus, preventive, read-out: concentration for inhibition de 50% de l'effet spasmogène, essais préventifs",0.5 µg/mL
same,change in vivo at 5 mg/kg,"Souris [5]; ip, 4 h, read-out: % d'augmentation par rapport aux témoins",155%
same,variation de température T= 2h,Souris [5],"+1,6"
same,variation de température T=3h,Souris [5],"+0,7"
same,variation de température T=4h,Souris [5],"+1,4"
same,inhibition in vivo at 5 mg/kg,"Souris [6]; ip, 2 h, ptosis, read-out: % de protection",5%
same,Ptosis Total,Souris [6],"28,6"
same,Ptosis 30 minutes,Souris [6]; score 0-4 per eye,"4,8"
same,Ptosis 60 minutes,Souris [6]; score 0-4 per eye,"7,8"
same,Ptosis 90 minutes,Souris [6]; score 0-4 per eye,8
same,Ptosis 120 minutes,Souris [6]; score 0-4 per eye,8
same,% de protection,Souris [7]; [9],70%
same,Nombre de crampes en 30 minutes,Souris [7]; [9],35
same,% de protection,Souris [7]; [10],100%
same,Nombre de crampes en 30 minutes,Souris [7]; [10],0
same,action protectrice envers le syndrome douloureux à la phénylbenzoquinone,Souris [7]; in vivo,action protectrice importante
same,EC50,Iléon de cobaye [8],0.5 µg/mL
